Reference: PubChem BioAssay (NCI)
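Cultured in 96-well plates, cells were exposed to test compound for 48 hours across five concentrations. At the TGI there is no net growth.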

Key:
Assay in all cases: growth of human tumour cells (NCI), 48 h
[1] = system: M14 melanoma
[2] = system: TK-10 renal
[3] = system: COLO 205 colon
[4] = system: NCI-H23 lung
[5] = system: SW-620 colon
[6] = system: CCRF-CEM leukemia
[7] = system: DMS 273 small cell lung
[8] = system: RXF 393 renal
[9] = system: HOP-62 NSCLC
[10] = system: A549 NSCLC
[11] = system: U251 CNS
[12] = system: SNB-75 CNS
[13] = system: LOX IMVI melanoma
[14] = system: UO-31 renal
[15] = system: SK-MEL-28 melanoma
[16] = system: SK-MEL-5 melanoma
[17] = system: SF-539 CNS
[18] = system: NCI-H522 lung
[19] = system: K-562 leukemia
[20] = system: HCC-2998 colon
[21] = system: OVCAR-8 ovarian
[22] = system: KM20L2 colon
[23] = system: MALME-3M melanoma
[24] = system: SK-MEL-2 melanoma
[25] = system: IGROV1 ovarian
[26] = system: SF-295 CNS
[27] = system: SNB-19 CNS
[28] = system: DMS 114 small cell lung
[29] = system: SF-268 CNS
[30] = system: SN12C renal
[31] = system: ACHN renal
[32] = system: OVCAR-5 ovarian
[33] = system: KM12 colon
[34] = system: HOP-18 NSCLC
[35] = system: NCI-H460 lung
[36] = system: CAKI-1 renal
[37] = system: HCT-116 colon
[38] = system: SNB-78 CNS
[39] = system: EKVX NSCLC
[40] = system: MOLT-4 leukemia
[41] = system: A498 renal
[42] = system: M19-MEL melanoma
[43] = system: RPMI-8226 leukemia
[44] = system: HOP-92 NSCLC
[45] = system: HCT-15 colon
[46] = system: UACC-62 melanoma
[47] = system: SK-OV-3 ovarian
[48] = system: DLD-1 colon
[49] = system: OVCAR-4 ovarian
[50] = system: OVCAR-3 ovarian
[51] = system: UACC-257 melanoma
[52] = system: HT29 colon
[53] = system: 786-0 renal
[54] = system: LXFL 529 NSCLC
[55] = system: MDA-MB-435
[56] = system: SR leukemia
[57] = system: PC-3 prostate
[58] = system: MDA-N
[59] = system: NCI/ADR-RES ovarian
[60] = system: HS 578T breast
[61] = system: DU-145 prostate
[62] = system: NCI-H226 lung
[63] = system: MDA-MB-231 breast
[64] = system: BT-549 breast
[65] = system: HL-60(TB) leukemia
[66] = system: MCF7 breast
[67] = system: T-47D breast

COc1ccc(OC)c(NC(=O)C2=C(C)NC(C)=C(C(=O)Nc3cc(OC)ccc3OC)C2c2ccccc2)c1
TGI [1]: > 100 µM | TGI [2]: > 100 µM | TGI [3]: > 100 µM | TGI [4]: > 100 µM | TGI [5]: > 100 µM | TGI [6]: > 100 µM | TGI [7]: > 100 µM | TGI [8]: > 100 µM | TGI [9]: > 100 µM | TGI [10]: > 100 µM | TGI [11]: > 100 µM | TGI [12]: 91 µM | TGI [13]: > 100 µM | TGI [14]: > 100 µM | TGI [15]: > 100 µM | TGI [16]: > 100 µM | TGI [17]: > 100 µM | TGI [18]: > 100 µM | TGI [19]: > 100 µM | TGI [20]: > 100 µM | TGI [21]: > 100 µM | TGI [22]: > 100 µM | TGI [23]: > 100 µM | TGI [24]: > 100 µM | TGI [25]: > 100 µM | TGI [26]: > 100 µM | TGI [27]: > 100 µM | TGI [28]: > 100 µM | TGI [29]: > 100 µM | TGI [30]: > 100 µM | TGI [31]: > 100 µM | TGI [32]: > 100 µM | TGI [33]: > 100 µM | TGI [34]: > 100 µM | TGI [35]: > 100 µM | TGI [36]: > 100 µM | TGI [37]: > 100 µM | TGI [38]: > 100 µM | TGI [39]: > 100 µM | TGI [40]: > 100 µM | TGI [41]: > 100 µM | TGI [42]: > 100 µM | TGI [43]: > 100 µM | TGI [44]: > 100 µM | TGI [45]: > 100 µM | TGI [46]: > 100 µM | TGI [47]: > 100 µM | TGI [48]: > 100 µM | TGI [49]: > 100 µM | TGI [50]: > 100 µM | TGI [51]: > 100 µM | TGI [52]: > 100 µM | TGI [53]: > 100 µM | TGI [54]: > 100 µM

CC(=O)NC(CS/N=N/c1nc[nH]c1C(N)=O)C(=O)O (configuration not stated)
TGI [55]: > 100 µM | TGI [1]: > 100 µM | TGI [2]: > 100 µM | TGI [3]: > 100 µM | TGI [4]: > 100 µM | TGI [5]: > 100 µM | TGI [6]: > 23.1 µM | TGI [8]: > 100 µM | TGI [56]: 0.0673 µM | TGI [9]: > 100 µM | TGI [10]: > 100 µM | TGI [11]: > 100 µM | TGI [12]: > 100 µM | TGI [57]: > 100 µM | TGI [13]: > 100 µM | TGI [14]: > 100 µM | TGI [15]: > 100 µM | TGI [16]: > 100 µM | TGI [58]: > 100 µM | TGI [17]: > 100 µM | TGI [18]: > 100 µM | TGI [19]: > 100 µM | TGI [20]: > 27.9 µM | TGI [21]: > 100 µM | TGI [59]: > 100 µM | TGI [23]: > 29.3 µM | TGI [24]: > 100 µM | TGI [25]: > 100 µM | TGI [60]: > 100 µM | TGI [61]: > 100 µM | TGI [62]: > 100 µM | TGI [26]: > 100 µM | TGI [27]: > 100 µM | TGI [29]: > 100 µM | TGI [30]: > 55.9 µM | TGI [63]: > 27.8 µM | TGI [31]: > 100 µM | TGI [32]: > 100 µM | TGI [33]: > 45.3 µM | TGI [35]: > 100 µM | TGI [36]: > 41.2 µM | TGI [37]: > 100 µM | TGI [39]: > 100 µM | TGI [40]: > 36.1 µM | TGI [41]: > 100 µM | TGI [64]: > 100 µM | TGI [43]: > 31.6 µM | TGI [44]: > 100 µM | TGI [45]: > 100 µM | TGI [46]: > 100 µM | TGI [47]: > 100 µM | TGI [65]: > 23.7 µM | TGI [49]: > 100 µM | TGI [66]: > 100 µM | TGI [50]: > 100 µM | TGI [51]: > 100 µM | TGI [67]: > 100 µM | TGI [52]: > 100 µM | TGI [53]: > 100 µM

Cc1ccc(C(=O)c2nnc(C(=O)c3ccc(C)cc3)nn2)cc1
TGI [1]: 56.3 µM | TGI [2]: > 100 µM | TGI [3]: > 100 µM | TGI [4]: > 100 µM | TGI [5]: 44.1 µM | TGI [6]: 50.8 µM | TGI [7]: > 100 µM | TGI [56]: 37.6 µM | TGI [9]: > 100 µM | TGI [10]: > 100 µM | TGI [11]: > 100 µM | TGI [12]: > 100 µM | TGI [13]: 35.6 µM | TGI [14]: > 100 µM | TGI [15]: > 100 µM | TGI [16]: > 100 µM | TGI [17]: > 100 µM | TGI [18]: > 100 µM | TGI [19]: 55.8 µM | TGI [20]: > 100 µM | TGI [21]: > 100 µM | TGI [22]: > 100 µM | TGI [23]: > 100 µM | TGI [24]: > 100 µM | TGI [25]: > 100 µM | TGI [62]: > 100 µM | TGI [26]: > 100 µM | TGI [27]: > 100 µM | TGI [29]: 55.4 µM | TGI [30]: > 100 µM | TGI [31]: > 100 µM | TGI [32]: > 100 µM | TGI [33]: > 100 µM | TGI [34]: > 100 µM | TGI [35]: 33.8 µM | TGI [36]: > 100 µM | TGI [37]: > 100 µM | TGI [38]: > 100 µM | TGI [39]: > 100 µM | TGI [40]: > 100 µM | TGI [42]: 61.5 µM | TGI [43]: > 100 µM | TGI [44]: > 100 µM | TGI [45]: > 100 µM | TGI [46]: > 100 µM | TGI [47]: 36.8 µM | TGI [48]: > 100 µM | TGI [65]: 48.2 µM | TGI [49]: > 100 µM | TGI [50]: > 100 µM | TGI [51]: > 100 µM | TGI [52]: > 100 µM | TGI [53]: > 100 µM | TGI [54]: > 100 µM
